The source of these data is ChEMBL document CHEMBL3507680, “University of Dundee, Gates Library screen for HepG2 cell viability”.

Each structure is given as a SMILES string.

A short description of the series: Human HepG2 cell viability assay in 384 well format. It is filed as toxicity, cell-based. Also on record: dose 125 nL, time 70.5 hour; concentration not given beside the values. As to conditions: HepG2 cells, read-out: Inhibition.
In the case of `CC(C)c1noc(CN2CCN(CCO)CC2)n1`, the cytotoxicity at 70.5 h is 2.45%.
Under `COCc1ccccc1CNCc1c(C(C)C)nn(C)c1N(C)C` stands -0.306%; under `CCOCCN1CCN(Cc2nc(CC(C)C)no2)CC1`, 1.47%.
Take `COc1cc(CNCCn2cc(C)cn2)cc2c1OCCO2`: the cytotoxicity at 70.5 h is 1.39%.
Next, `COc1ncccc1C(=O)N1CCCC(n2ccnc2)C1` (stereo unspecified): -1.13%; `Cc1cc(C)n(CC2CN(Cc3cnc(C)s3)CCO2)n1` (stereo unspecified): 16.8%; `CCc1noc(CN2CCN(CCO)CC2)n1`: -1.62%.
Regarding `O=C(c1cccnc1N1CCCCC1)N1CCCC(n2ccnc2)C1` (stereo unspecified), the cytotoxicity at 70.5 h is 1.48%.
On to `Cc1ccc(NC2CCN(C(=O)c3c(C)nn(C)c3Cl)CC2)nn1`, for which the cytotoxicity at 70.5 h is -2.32%.
As to `Cc1ccc(NC2CCN(C(=O)c3c(C)oc(C)c3C)CC2)nn1`, the cytotoxicity at 70.5 h was -10.8%.
Next, `CCc1nc(CC(=O)N2CCn3c(CC)nnc3C2)cs1`: -2.3%; `COCCNC(=O)Nc1ccc(-n2cncn2)c(C(F)(F)F)c1`: -3.51%; `COc1ccc(C(CNC(=O)Nc2cc(C)nn2C)N(C)C)cc1` (stereo unspecified): -5.49%.
Next, `CCCNC(=O)CCOc1cccc(F)c1`: -3.12%; `Cn1cc(Cl)cc1C(=O)N1CCCN(Cc2ccccc2)CC1`: -8.08%.
Next, `O=C(NCCCNc1ccc(C(F)(F)F)cn1)c1ccc2c(c1)OCO2`: -9.51%; `CSCc1ccc(C(=O)NCCCNc2ccc(C(F)(F)F)cn2)cc1`: -13.3%; `COCc1ccc(C(=O)NCCCNc2ccc(C(F)(F)F)cn2)cc1`: -11.2%.
Turning to `Cn1cc(C#N)c(=O)n(CC(O)c2ccccc2F)c1=O` (stereo unspecified), the cytotoxicity at 70.5 h is -13.2%.
In the case of `CC(C)c1nccn1C1CCCN(C(=O)c2cccc3[nH]ncc23)C1` (stereo unspecified), the cytotoxicity at 70.5 h was -8.02%.
Next, `Cc1cc(C)n(CC2CCCN2Cc2cscn2)n1` (stereo unspecified): 5.49%; `Cc1cnc(C(=O)Nc2cc(F)ccc2OCC2CCCO2)cn1` (stereo unspecified): -6.23%.
Take `Cc1nc(CN2CCCC(NCC(=O)Nc3cccnc3)C2)no1` (stereo unspecified): the cytotoxicity at 70.5 h is -8.83%.
Next, `Cc1cc(NC(=O)CN2CCn3c(nnc3C3CC3)C2)no1`: -5.22%.
Next, `Cc1nc2ccccc2nc1CN1CCCCC1Cn1cncn1` (stereo unspecified): -8.21%.
Next, `CCc1nccn1C1CCCN(C(=O)c2ccc3[nH]nnc3c2)C1` (stereo unspecified): -8.95%; `CC(C)c1nnc2n1CCN(C(=O)COc1ccc(C(N)=O)cc1)C2`: -6.98%; `Cn1nc(C(=O)N2CCCC(n3cncn3)C2)ccc1=O` (stereo unspecified): -7.35%.
For `Cn1cc(C(=O)N2CCCC(n3cncn3)C2)ccc1=O` (stereo unspecified), the cytotoxicity at 70.5 h is -9.74%.
On to `Cc1cc(NC(=O)CN2CCn3c(C)nnc3C2)no1`, for which the cytotoxicity at 70.5 h was -7.43%.
Under `Cc1cnc(CN2CCOC(CN(C)c3cccnn3)C2)cn1` (stereo unspecified) stands -0.738%.
`Cc1nc(CN(C)CC2CCCN2c2cccnn2)oc1C` (stereo unspecified): the cytotoxicity at 70.5 h is -1.57%.
Next, `Cc1nc(C)c(C(=O)N2CCCN(Cc3cnn(C)c3)CC2)s1`: -3.11%; `CC(C)S(=O)(=O)C(C)C(=O)NCc1cccc(N2CCCCC2=O)c1` (stereo unspecified): 13.6%.
Take `CNS(=O)(=O)c1cccc(CNC(=O)NCC2CCOC2)c1` (stereo unspecified): the cytotoxicity at 70.5 h is -8.46%.
Under `Cc1noc(C2CCN(C(=O)c3cc(Br)ccc3F)CC2)n1` stands -2.54%.
Next, `COc1cccc(-c2nc(CNCCn3cccn3)cs2)c1`: -7.96%; `CC(c1nc(C2CC2)no1)N1CCN(Cc2ccsc2)CC1` (stereo unspecified): -12.3%.
Consider `COc1ccc(CN2CCN(C(C)c3nc(C4CC4)no3)CC2)cc1` (stereo unspecified), for which the cytotoxicity at 70.5 h was -6.65%.
Turning to `CC1CCCCN1C(=O)CN1CCN(c2ccc3nncn3n2)CC1` (stereo unspecified), the cytotoxicity at 70.5 h was -11.2%.
With `O=C(CCSc1ccc(F)cc1)NS(=O)(=O)c1ccc2c(c1)OCCO2`, the cytotoxicity at 70.5 h is -6.96%.
